Measurements as given in US11446287B2, “Compounds and methods for EP300 or CBP modulation and indications therefor” (Opna Immuno-Oncology SA, priority 2019, dated 2022).

Molecular target: T1, Recombinant human CBP containing the bromodomain (CBP-BD (1043-1159)) (Homo sapiens, UniProt Q92793)
T1 construct: Recombinant human CBP bromodomain (CBP-BD (1043-1159)); made in house; host or cells: E. coli BL21-CodonPlus (DE3), modified pET vector
Assay: CBP Alphascreen binding assay
Details: read-out: CREBBP (CBP) IC50
Procedure, shortened: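 Buffer: 50 mM HEPES pH 7.5, 50 mM NaCl, 0.01% BSA, 0.01% Triton X-100, 2 mM DTT. The signal was normalised to plate controls and fitted with a four-parameter curve to give IC50.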

T1 sequence (Q92793 1081-1197): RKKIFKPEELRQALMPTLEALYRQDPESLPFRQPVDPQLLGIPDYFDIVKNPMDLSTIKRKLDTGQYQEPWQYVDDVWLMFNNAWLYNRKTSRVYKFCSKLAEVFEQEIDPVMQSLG

| Compound | IC50 [µM] |
| --- | --- |
| Cc1noc(C)c1-c1cnc2c(c1)c(-c1cccc(C(=O)O)c1)cn2CC1CC1 [P-0050, 3-(1-(cyclopropylmethyl)-5-(3,5-dimethylisoxazol-4-yl)-1H-pyrrolo[2,3-b]pyridin-3-yl)benzoic acid] | 0.0001 to 1 |
| Cc1noc(C)c1-c1cnc2c(c1)c(-c1ccnc(C(=O)O)c1C)cn2C(C1CC1)C1CC1 [P-0418, 4-(1-(dicyclopropylmethyl)-5-(3,5-dimethylisoxazol-4-yl)-1H-pyrrolo[2,3-b]pyridin-3-yl)-3-methylpicolinic acid] | 0.0001 to 1 |
| Cc1noc(C)c1-c1cnc2c(c1)c(-c1c(Cl)cc(C(=O)O)cc1OC1CCC1)cn2-c1cnc(C2CC2)nc1 [P-0391, 3-chloro-5-cyclobutoxy-4-(1-(2-cyclopropylpyrimidin-5-yl)-5-(3,5-dimethylisoxazol-4-yl)-1H-pyrrolo[2,3-b]pyridin-3-yl)benzoic acid] | 0.0001 to 1 |
| CCOc1cc(C(=O)O)nc(OCC)c1-c1cn(C2CCC(F)(F)CC2)c2ncc(-c3c(C)noc3C)cc12 [P-0425, 5-(1-(4,4-difluorocyclohexyl)-5-(3,5-dimethylisoxazol-4-yl)-1H-pyrrolo[2,3-b]pyridin-3-yl)-4,6-diethoxypicolinic acid] | 0.0001 to 1 |
| CCOc1cc(C(=O)O)nc(OCC)c1-c1cn(-c2ccccc2F)c2ncc(-c3c(C)noc3C)cc12 [P-0414, 5-(5-(3,5-dimethylisoxazol-4-yl)-1-(2-fluorophenyl)-1H-pyrrolo[2,3-b]pyridin-3-yl)-4,6-diethoxypicolinic acid] | 0.0001 to 1 |
| CCOc1cc(C(=O)O)nc(OCC)c1-c1cn(-c2cn(C(F)F)nc2C)c2ncc(-c3c(C)noc3C)cc12 [P-0429, 5-(1-(1-(difluoromethyl)-3-methyl-1H-pyrazol-4-yl)-5-(3,5-dimethylisoxazol-4-yl)-1H-pyrrolo[2,3-b]pyridin-3-yl)-4,6-diethoxypicolinic acid] | 0.0001 to 1 |
| CCOc1cc(C(=O)O)c(F)cc1-c1cn(C2CCN(C(=O)CO)CC2)c2ncc(-c3c(C)noc3C)cc12 [P-0447, 4-(5-(3,5-dimethylisoxazol-4-yl)-1-(1-(2-hydroxyacetyl)piperidin-4-yl)-1H-pyrrolo[2,3-b]pyridin-3-yl)-5-ethoxy-2-fluorobenzoic acid] | 0.0001 to 1 |
| CCOc1cc(C(=O)O)nc(OCC)c1-c1cn(-c2cccnc2)c2ncc(-c3c(C)noc3C)cc12 [P-0436, 5-(5-(3,5-dimethylisoxazol-4-yl)-1-(pyridin-3-yl)-1H-pyrrolo[2,3-b]pyridin-3-yl)-4,6-diethoxypicolinic acid] | 0.0001 to 1 |
| CCOc1cc(C(=O)O)c(F)cc1-c1cn(C2CCN(C(=O)C(C)(C)C)CC2)c2ncc(-c3c(C)noc3C)cc12 [P-0445, 4-(5-(3,5-dimethylisoxazol-4-yl)-1-(1-pivaloylpiperidin-4-yl)-1H-pyrrolo[2,3-b]pyridin-3-yl)-5-ethoxy-2-fluorobenzoic acid] | 0.0001 to 1 |
| CCOc1cc(C(=O)O)nc(OCC)c1-c1cn(C2CCN(S(C)(=O)=O)CC2)c2ncc(-c3c(C)noc3C)cc12 [P-0435, 5-(5-(3,5-dimethylisoxazol-4-yl)-1-(1-(methylsulfonyl)piperidin-4-yl)-1H-pyrrolo[2,3-b]pyridin-3-yl)-4,6-diethoxypicolinic acid] | 0.0001 to 1 |
| Cc1noc(C)c1-c1cnc2c(c1)c(-c1ccnc(C(=O)O)c1)cn2Cc1ccccn1 [P-0044, 4-(5-(3,5-dimethylisoxazol-4-yl)-1-(pyridin-2-ylmethyl)-1H-pyrrolo[2,3-b]pyridin-3-yl)picolinic acid] | 0.0001 to 1 |
| CCOc1cc(C(=O)O)nc(OCC)c1-c1cn([C@@H](C)c2ccccn2)c2ncc(-c3c(C)noc3C)cc12 [P-0415, (S)-5-(5-(3,5-dimethylisoxazol-4-yl)-1-(1-(pyridin-2-yl)ethyl)-1H-pyrrolo[2,3-b]pyridin-3-yl)-4,6-diethoxypicolinic acid] | 0.0001 to 1 |
| Cc1noc(C)c1-c1cnc2c(c1)c(-c1c(F)cc(C(=O)O)cc1OC1CCC1)cn2C1CCOCC1 [P-0410, 3-cyclobutoxy-4-(5-(3,5-dimethylisoxazol-4-yl)-1-(tetrahydro-2H-pyran-4-yl)-1H-pyrrolo[2,3-b]pyridin-3-yl)-5-fluorobenzoic acid] | 0.0001 to 1 |
| CCOc1cc(C(=O)O)ncc1-c1cn(C2CCOCC2)c2ncc(-c3c(C)noc3C)cc12 [P-0428, 5-(5-(3,5-dimethylisoxazol-4-yl)-1-(tetrahydro-2H-pyran-4-yl)-1H-pyrrolo[2,3-b]pyridin-3-yl)-4-ethoxypicolinic acid] | 0.0001 to 1 |
| Cc1noc(C)c1-c1cnc2c(c1)c(-c1c(Cl)cc(C(=O)O)cc1OC(F)(F)F)cn2-c1cccnn1 [P-0439, 3-chloro-4-(5-(3,5-dimethylisoxazol-4-yl)-1-(pyridazin-3-yl)-1H-pyrrolo[2,3-b]pyridin-3-yl)-5-(trifluoromethoxy)benzoic acid] | 0.0001 to 1 |
| CCOc1nc(C(=O)O)ccc1-c1cn(C2(C)CCOCC2)c2ncc(-c3c(C)noc3C)cc12 [P-0405, 5-(5-(3,5-dimethylisoxazol-4-yl)-1-(4-methyltetrahydro-2H-pyran-4-yl)-1H-pyrrolo[2,3-b]pyridin-3-yl)-6-ethoxypicolinic acid] | 0.0001 to 1 |

| Compound | IC50 [µM] |
| --- | --- |
| Cc1noc(C)c1-c1cnc2c(c1)c(C#CC(C)(C)C(=O)O)cn2Cc1ccccc1 [P-0051, 4-(1-benzyl-5-(3,5-dimethylisoxazol-4-yl)-1H-pyrrolo[2,3-b]pyridin-3-yl)-2,2-dimethylbut-3-ynoic acid] | 0.0001 to 1 |
| Cc1noc(C)c1-c1cnc2c(c1)c(-c1ccc(C(=O)O)cc1OC(C)C)cn2C1(C)CCOC1 (centres unmarked) [P-0407, 4-(5-(3,5-dimethylisoxazol-4-yl)-1-(3-methyltetrahydrofuran-3-yl)-1H-pyrrolo[2,3-b]pyridin-3-yl)-3-isopropoxybenzoic acid] | 0.0001 to 1 |
| Cc1noc(C)c1-c1cnc2c(c1)c(-c1ccnc(C(=O)O)c1)cn2Cc1ccccc1 [P-0042, 4-(1-benzyl-5-(3,5-dimethylisoxazol-4-yl)-1H-pyrrolo[2,3-b]pyridin-3-yl)picolinic acid] | 0.0001 to 1 |
| COC(=O)c1cc(Cl)c(-c2cn(-c3ccc(C4CC4)nc3)c3ncc(-c4c(C)noc4C)cc23)c(OC(F)(F)F)c1 [P-0440, methyl 3-chloro-4-(1-(6-cyclopropylpyridin-3-yl)-5-(3,5-dimethylisoxazol-4-yl)-1H-pyrrolo[2,3-b]pyridin-3-yl)-5-(trifluoromethoxy)benzoate] | 1 to 8 |
| Cc1noc(C)c1-c1cnc2c(Cc3ccccc3)cn(-c3ccnc(C(=O)O)c3)c2c1 [P-0053, 4-(3-benzyl-6-(3,5-dimethylisoxazol-4-yl)-1H-pyrrolo[3,2-b]pyridin-1-yl)picolinic acid] | 0.0001 to 1 |
| CCOc1cc(C(=O)O)ncc1-c1cn(C(C2CC2)C2CC2)c2ncc(-c3c(C)noc3C)cc12 [P-0427, 5-(1-(dicyclopropylmethyl)-5-(3,5-dimethylisoxazol-4-yl)-1H-pyrrolo[2,3-b]pyridin-3-yl)-4-ethoxypicolinic acid] | 0.0001 to 1 |
| CCOc1nc(C(=O)O)c(C)cc1-c1cn(C(C2CC2)C2CC2)c2ncc(-c3c(C)noc3C)cc12 [P-0416, 5-(1-(dicyclopropylmethyl)-5-(3,5-dimethylisoxazol-4-yl)-1H-pyrrolo[2,3-b]pyridin-3-yl)-6-ethoxy-3-methylpicolinic acid] | 0.0001 to 1 |
| Cc1noc(C)c1-c1cnc2c(c1)c(-c1ccnc(C(=O)O)c1C)cn2C1CCOCC1 [P-0419, 4-(5-(3,5-dimethylisoxazol-4-yl)-1-(tetrahydro-2H-pyran-4-yl)-1H-pyrrolo[2,3-b]pyridin-3-yl)-3-methylpicolinic acid] | 0.0001 to 1 |
| COc1ccc(CC(=O)O)cc1-c1cn(-c2ccc(F)cc2F)c2ncc(-c3c(C)noc3C)cc12 [P-0443, 2-(3-(1-(2,4-difluorophenyl)-5-(3,5-dimethylisoxazol-4-yl)-1H-pyrrolo[2,3-b]pyridin-3-yl)-4-methoxyphenyl)acetic acid] | 0.0001 to 1 |
| CCOc1cc(C(=O)O)nc(OCC)c1-c1cn(C(C2CC2)C2CC2)c2ncc(-c3c(C)noc3C)cc12 [P-0420, 5-(1-(dicyclopropylmethyl)-5-(3,5-dimethylisoxazol-4-yl)-1H-pyrrolo[2,3-b]pyridin-3-yl)-4,6-diethoxypicolinic acid] | 0.0001 to 1 |
| Cc1noc(C)c1-c1cnc2c(c1)c(-c1ccc(CC(=O)O)cc1)cn2-c1ccc(F)cc1F [P-0438, 2-(4-(1-(2,4-difluorophenyl)-5-(3,5-dimethylisoxazol-4-yl)-1H-pyrrolo[2,3-b]pyridin-3-yl)phenyl)acetic acid] | 0.0001 to 1 |
| Cc1noc(C)c1-c1cnc2c(c1)c(-c1ccnc(C(=O)O)c1)cn2C(c1ccccn1)C1CCC1 (centres unmarked) [P-0043, 4-(1-(cyclobutyl(pyridin-2-yl)methyl)-5-(3,5-dimethylisoxazol-4-yl)-1H-pyrrolo[2,3-b]pyridin-3-yl)picolinic acid] | 0.0001 to 1 |
| Cc1noc(C)c1-c1cnc2c(C(=O)c3ccccc3)cn(-c3ccnc(C(=O)O)c3)c2c1 [P-0054, 4-(3-benzoyl-6-(3,5-dimethylisoxazol-4-yl)-1H-pyrrolo[3,2-b]pyridin-1-yl)picolinic acid] | 0.0001 to 1 |
| Cc1noc(C)c1-c1cnc2c(c1)c(-c1ccc(C(=O)O)c(Cl)c1)cn2C(c1ccccn1)C1CCCC1 (centres unmarked) [P-0038, 2-chloro-4-(1-(cyclopentyl(pyridin-2-yl)methyl)-5-(3,5-dimethylisoxazol-4-yl)-1H-pyrrolo[2,3-b]pyridin-3-yl)benzoic acid] | 0.0001 to 1 |
| COc1cc(C(=O)O)ccc1-c1cn([C@@H](C)c2ccccn2)c2ncc(-c3c(C)noc3C)cc12 [P-0047, (S)-4-(5-(3,5-dimethylisoxazol-4-yl)-1-(1-(pyridin-2-yl)ethyl)-1H-pyrrolo[2,3-b]pyridin-3-yl)-3-methoxybenzoic acid] | 0.0001 to 1 |
| Cc1noc(C)c1-c1cnc2c(c1)c(-c1c(Cl)cc(C(=O)O)cc1OCC(F)F)cn2-c1cnc(C2CC2)nc1 [P-0390, 3-chloro-4-(1-(2-cyclopropylpyrimidin-5-yl)-5-(3,5-dimethylisoxazol-4-yl)-1H-pyrrolo[2,3-b]pyridin-3-yl)-5-(2,2-difluoroethoxy)benzoic acid] | 0.0001 to 1 |
